As a reminder, the Ki is a measure of affinity in units of concentration, obtained from inhibition or displacement. The Emax is the maximal effect, on the per cent scale that the assay sets. The term EC50 denotes the concentration needed to bring the measured effect to its halfway point. Usually Kd stands for the equilibrium constant for the complex coming apart.

The target in assay [1] is T1, human 5-hydroxytryptamine-2C (h5-HT2C) receptor (Homo sapiens, UniProt P28335).
T1 construct: expressed in transfected cells; host or cells: CHO (Chinese Hamster Ovary) cells; membranes
T1 sequence (P28335 33-458): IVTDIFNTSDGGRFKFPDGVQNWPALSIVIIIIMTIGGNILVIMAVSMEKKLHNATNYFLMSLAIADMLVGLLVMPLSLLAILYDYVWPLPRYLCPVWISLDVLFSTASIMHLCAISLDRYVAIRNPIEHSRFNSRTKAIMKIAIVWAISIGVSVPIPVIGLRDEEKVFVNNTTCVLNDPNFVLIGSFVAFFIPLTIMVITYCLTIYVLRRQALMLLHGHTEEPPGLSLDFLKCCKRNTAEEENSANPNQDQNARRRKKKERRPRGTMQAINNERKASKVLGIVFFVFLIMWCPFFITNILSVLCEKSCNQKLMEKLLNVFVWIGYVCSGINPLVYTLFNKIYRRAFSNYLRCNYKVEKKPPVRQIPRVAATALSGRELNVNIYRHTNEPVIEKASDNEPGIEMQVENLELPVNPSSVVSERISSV
Description: [125I]DOI binding affinity at h5-HT2C receptor, CHO cell membranes. Conditions: for Ki: [125I]DOI displacement, CHO membranes expressing h5-HT2C.

Another assay has as its target T2, human 5-HT2C receptor (Homo sapiens, UniProt P28335).
T2 sequence (P28335 33-458): T1 sequence (P28335 33-458)
Description: 5-HT2C receptor-stimulated calcium mobilization (FLIPR) in CHO cells. Type of assay: cell-based. Conditions: for Emax: CHO, read-out: 5-HT2C Function Emax (%); for EC50: calcium mobilization, CHO cells expressing human 5-HT2C, read-out: 5-HT2C Function EC50. Background: Calcium assays in cells follow changes in intracellular calcium, usually with a dye or a luminescent sensor.

Setting [2] is: percentage of the response to a maximally effective concentration of 5-HT.

Molecules are shown by their SMILES. Read-outs that look alike come from different tables or passages of the source.

`NCC1Cc2ccc3c(c2O1)CCC3` (racemic) [Example 1, (±)-1-(3,6,7,8-tetrahydro-2H-indeno[4,5-b]furan-2-yl)methanamine]: the Ki in assay [1] (read-out: 5-HT2C Affinity Ki) was found to be 10 nM. Also, the Emax on human 5-HT2C receptor (setting [2]) is 90%. The EC50 at human 5-HT2C receptor worked out at 31 nM.
For `NCC1Cc2ccc3c(c2O1)CCCC3` (racemic) [Example 4, (±)-1-(2,3,6,7,8,9-hexahydronaphtho[1,2-b]furan-2-yl)methanamine] the same measures were 8 nM, 80% and 76 nM.
On to `Cc1cc2c(c3c1CCC3)OC(CN)C2` (racemic) [Example 7, (±)-1-(5-methyl-3,6,7,8-tetrahydro-2H-indeno[4,5-b]furan-2-yl)methanamine], for which, in assay [1] (read-out: 5-HT2C Affinity Ki), the Ki came out at 6 nM. The Emax at human 5-HT2C receptor (setting [2]) worked out at 95%. Also, at human 5-HT2C receptor, the EC50 is 19 nM.
Consider `NCC1Cc2ccc3ccccc3c2O1` (racemic) [Example 10, (±)-1-(2,3-dihydronaphtho[1,2-b]furan-2-yl)methanamine], for which the inhibitory constant (Ki) in assay [1] (read-out: 5-HT2C Affinity Ki) was 29 nM. Besides, the Emax at human 5-HT2C receptor (setting [2]) is 90%. Besides, the EC50 at human 5-HT2C receptor came out at 20 nM.
With `NCC1Cc2cc3c(cc2O1)CCCC3` (racemic) [Example 13, (±)-1-(2,3,5,6,7,8-hexahydronaphtho[2,3-b]furan-2-yl)methanamine], in assay [1] (read-out: 5-HT2C Affinity Ki), the inhibition constant Ki is 99 nM.
With `NCC1Cc2c(ccc3c2CCCC3)O1` (racemic) [Example 14, (±)-1-(1,2,6,7,8,9-hexahydronaphtho[2,1-b]furan-2-yl)methanamine], the inhibitory constant (Ki) in assay [1] (read-out: 5-HT2C Affinity Ki) came out at 19 nM. For the same molecule, at human 5-HT2C receptor (setting [2]), the maximum response (Emax) stood at 100%. Also, the 50% effective concentration (EC50) at human 5-HT2C receptor came out at 34 nM.
Regarding `COc1cc2c(c3c1C1CCC3CC1)OC(CN)C2` (racemic) [Example 19, (±)-1-(5-methoxy-2,3,6,7,8,9-hexahydro-6,9-ethanonaphtho[1,2-b]furan-2-yl)methanamine], the Ki in assay [1] (read-out: 5-HT2C Affinity Ki) was found to be 7 nM. Also, the Emax at human 5-HT2C receptor (setting [2]) worked out at 100%. Besides, the concentration for a half-maximal effect (EC50) on human 5-HT2C receptor was found to be 25 nM.
For the molecule `NCC1Cc2cc(Cl)c3ccccc3c2O1` (racemic) [Example 23, (±)-1-(5-chloro-2,3-dihydronaphtho[1,2-b]furan-2-yl)methanamine], the Ki in assay [1] (read-out: 5-HT2C Affinity Ki) worked out at 5 nM. The maximal response (Emax) at human 5-HT2C receptor (setting [2]) turned out to be 90%. For the same molecule, the concentration for a half-maximal effect (EC50) at human 5-HT2C receptor is 28 nM.
For `CNCC1Cc2cc(Cl)c3ccccc3c2O1` (racemic) [Example 24, (±)-1-(5-chloro-2,3-dihydronaphtho[1,2-b]furan-2-yl)-N-methylmethanamine] the same measures were 7 nM, 60% and 91 nM.
As for `NCC1Cc2c(Cl)cc3c(c2O1)CCC3` (racemic) [Example 25, (±)-1-(4-chloro-3,6,7,8-tetrahydro-2H-indeno[4,5-b]furan-2-yl)methanamine], in assay [1] (read-out: 5-HT2C Affinity Ki), the Ki was determined as 12 nM. Moreover, the Emax at human 5-HT2C receptor (setting [2]) is 80%. For the same molecule, the EC50 at human 5-HT2C receptor turned out to be 4.4 nM.
`NCC1Cc2cc(Cl)c3c(c2O1)CCC3` (racemic) [Example 29, (±)-1-(5-chloro-3,6,7,8-tetrahydro-2H-indeno[4,5-b]furan-2-yl)methanamine]: the Ki in assay [1] (read-out: 5-HT2C Affinity Ki) was 4 nM. The Emax at human 5-HT2C receptor (setting [2]) is 100%. Further, the EC50 on human 5-HT2C receptor amounted to 5.8 nM.
For `COc1cc2c(c3c1C1CCC3C1)OC(CN)C2` (single isomer, unassigned) [Example 16, (9-methoxy-4-oxatetracyclo[9.2.1.0^2,10.0^3,7]tetradeca-2,7,9-trien-5-yl)methylamine], the inhibition constant Ki in assay [1] (read-out: 5-HT2C Affinity Ki) turned out to be 85 nM.
Turning to `COc1cc2c(c3c1C1CCC3C1)OC(CN)C2` (single isomer, unassigned) [Example 17, (9-methoxy-4-oxatetracyclo[9.2.1.0^2,10.0^3,7]tetradeca-2,7,9-trien-5-yl)methylamine], the Ki in assay [1] (read-out: 5-HT2C Affinity Ki) came out at 8 nM. Also, the maximal effect (Emax) at human 5-HT2C receptor (setting [2]) is 100%. For the same molecule, at human 5-HT2C receptor, the EC50 was 10 nM.
As for `COc1cc2c(c3c1C1CCC3C1)OC(CN)C2` (single isomer, unassigned) [Example 18, (9-methoxy-4-oxatetracyclo[9.2.1.0^2,10.0^3,7]tetradeca-2,7,9-trien-5-yl)methylamine], in assay [1] (read-out: 5-HT2C Affinity Ki), the Ki is 82 nM.
Molecule `C[C@@H](N)[C@H]1Cc2ccc3c(c2O1)CCC3` (single isomer, unassigned) [Example 22, (2R*)-1-[(2R*)-3,6,7,8-tetrahydro-2H-indeno[4,5-b]furan-2-yl]ethylamine] displayed an inhibition constant Ki in assay [1] (5-HT2C Affinity Ki (nM)) of 13 nM. In addition, at human 5-HT2C receptor, the Emax turned out to be 80% and the EC50 was determined as 15 nM.
Regarding `NCC1Cc2ccc3c(c2O1)CCC3` (single isomer, unassigned; (+)) [Example 2, (+)-1-(3,6,7,8-tetrahydro-2H-indeno[4,5-b]furan-2-yl)methanamine], the inhibition constant (Ki) in assay [1] (read-out: 5-HT2C Affinity Ki) was 28 nM. In addition, the EC50 on human 5-HT2C receptor is 8 nM. For the same molecule, on human 5-HT2C receptor (setting [2]), the “5-HT2C Function Emax (%)” value was determined as 75%.
`NCC1Cc2ccc3c(c2O1)CCCC3` (single isomer, unassigned; (+)) [Example 5, (+)-1-(2,3,6,7,8,9-hexahydronaphtho[1,2-b]furan-2-yl)methanamine]: the Ki in assay [1] (read-out: 5-HT2C Affinity Ki) worked out at 17 nM. At human 5-HT2C receptor, the EC50 stood at 38 nM. The “5-HT2C Function Emax (%)” value at human 5-HT2C receptor (setting [2]) was determined as 70%.
`Cc1cc2c(c3c1CCC3)OC(CN)C2` (single isomer, unassigned; (+)) [Example 8, (+)-1-(5-methyl-3,6,7,8-tetrahydro-2H-indeno[4,5-b]furan-2-yl)methanamine]: the Ki in assay [1] (read-out: 5-HT2C Affinity Ki) was 6 nM. Moreover, the Emax on human 5-HT2C receptor (setting [2]) was found to be 100%. The EC50 at human 5-HT2C receptor is 8.3 nM.
Regarding `NCC1Cc2ccc3ccccc3c2O1` (single isomer, unassigned; (+)) [Example 11, (+)-1-(2,3-dihydronaphtho[1,2-b]furan-2-yl)methanamine], the Ki in assay [1] (read-out: 5-HT2C Affinity Ki) was 15 nM. Moreover, the concentration giving a half-maximal response (EC50) on human 5-HT2C receptor stood at 5.7 nM. Also, the “5-HT2C Function Emax (%)” value at human 5-HT2C receptor (setting [2]) worked out at 65%.
As for `COc1cc2c(c3c1C1CCC3CC1)OC(CN)C2` (single isomer, unassigned; (+)) [Example 20, (+)-1-(5-methoxy-2,3,6,7,8,9-hexahydro-6,9-ethanonaphtho[1,2-b]furan-2-yl)methanamine], the Ki in assay [1] (read-out: 5-HT2C Affinity Ki) was 22 nM. In addition, on human 5-HT2C receptor, the EC50 stood at 91 nM. At human 5-HT2C receptor (setting [2]), the “5-HT2C Function Emax (%)” value amounted to 60%.
In the case of `NCC1Cc2c(Cl)cc3c(c2O1)CCC3` (single isomer, unassigned; (+)) [Example 27, (+)-1-(4-chloro-3,6,7,8-tetrahydro-2H-indeno[4,5-b]furan-2-yl)methanamine], in assay [1] (read-out: 5-HT2C Affinity Ki), the Ki was determined as 4 nM. On human 5-HT2C receptor, the concentration giving a half-maximal response (EC50) came out at 56 nM. For the same molecule, at human 5-HT2C receptor (setting [2]), the “5-HT2C Function Emax (%)” value came out at 60%.
`NCC1Cc2cc(Cl)c3c(c2O1)CCC3` (single isomer, unassigned; (+)) [Example 31, (+)-1-(5-chloro-3,6,7,8-tetrahydro-2H-indeno[4,5-b]furan-2-yl)methanamine]: the Ki in assay [1] (read-out: 5-HT2C Affinity Ki) is 1 nM. Also, at human 5-HT2C receptor, the half-maximal effective concentration (EC50) worked out at 10 nM. Further, the “5-HT2C Function Emax (%)” value at human 5-HT2C receptor (setting [2]) amounted to 40%.
For `NCC1Cc2ccc3c(c2O1)CCC3` (single isomer, unassigned; (-)) [Example 3, (−)-1-(3,6,7,8-tetrahydro-2H-indeno[4,5-b]furan-2-yl)methanamine] the same measures were 5 nM, 0.9 nM and 100%.
Turning to `NCC1Cc2ccc3c(c2O1)CCCC3` (single isomer, unassigned; (-)) [Example 6, (−)-1-(2,3,6,7,8,9-hexahydronaphtho[1,2-b]furan-2-yl)methanamine], in assay [1] (read-out: 5-HT2C Affinity Ki), the Ki was determined as 11 nM. The EC50 on human 5-HT2C receptor amounted to 3 nM. On human 5-HT2C receptor (setting [2]), the “5-HT2C Function Emax (%)” value amounted to 100%.
On the same counts, the results for `Cc1cc2c(c3c1CCC3)OC(CN)C2` (single isomer, unassigned; (-)) [Example 9, (−)-1-(5-methyl-3,6,7,8-tetrahydro-2H-indeno[4,5-b]furan-2-yl)methanamine] are 11 nM, 11 nM and 100%.
`NCC1Cc2ccc3ccccc3c2O1` (single isomer, unassigned; (-)) [Example 12, (−)-1-(2,3-dihydronaphtho[1,2-b]furan-2-yl)methanamine]: the inhibition constant Ki in assay [1] (read-out: 5-HT2C Affinity Ki) was determined as 16 nM. Also, the EC50 on human 5-HT2C receptor stood at 2 nM. The “5-HT2C Function Emax (%)” value at human 5-HT2C receptor (setting [2]) was 90%.
In the case of `COc1cc2c(c3c1C1CCC3CC1)OC(CN)C2` (single isomer, unassigned; (-)) [Example 21, (−)-1-(5-methoxy-2,3,6,7,8,9-hexahydro-6,9-ethanonaphtho[1,2-b]furan-2-yl)methanamine], in assay [1] (read-out: 5-HT2C Affinity Ki), the Ki was determined as 4 nM. Further, the half-maximal effective concentration (EC50) on human 5-HT2C receptor is 0.8 nM. Further, on human 5-HT2C receptor (setting [2]), the “5-HT2C Function Emax (%)” value worked out at 90%.
As to `NCC1Cc2c(Cl)cc3c(c2O1)CCC3` (single isomer, unassigned; (-)) [Example 26, (−)-1-(4-chloro-3,6,7,8-tetrahydro-2H-indeno[4,5-b]furan-2-yl)methanamine], in assay [1] (read-out: 5-HT2C Affinity Ki), the Ki turned out to be 16 nM. The maximum response (Emax) on human 5-HT2C receptor (setting [2]) worked out at 80%. Moreover, the concentration giving a half-maximal response (EC50) at human 5-HT2C receptor turned out to be 88 nM.
As to `CSc1ccc2c(c1)C(N1CCN(C)CC1)Cc1ccccc1S2` (centres unmarked) [Methiothepin, reference compound], the Ki in assay [1] (reference compounds, read-out: Ki (95% confidence interval)) was 4.6 nM.
In the case of `COc1cc(CC(C)N)c(OC)cc1I` (centres unmarked) [[^125I] DOI, reference compound], the dissociation constant (Kd) in assay [1] (saturation binding with increasing concentrations of [125I]DOI, read-out: dissociation constant, KD) amounted to 0.4 nM.
